# In patent US20250290117A1, “MOLECULAR PHENOTYPIC ANTIMICROBIAL SUSCEPTIBILITY TESTING” (priority 2024, published 2025):
# Columns and labels:
# [1] = tested on: Escherichia coli; assay: Molecular phenotypic antimicrobial susceptibility test (extraction or DNA purification prior to PCR); assay type: cell-based
# How it was run: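 Specimens are first pre-incubated in medium, then diluted to 0.5 McFarland guided by optical density. They are exposed 12-16 h to antimicrobials at sensitivity breakpoints. Finally, either bead-based purification or lysis for direct PCR precedes semi-quantitative PCR.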
# [2] = tested on: pathogen of the specimen; assay: Molecular phenotypic antimicrobial susceptibility test with direct PCR at various incubation timepoints (Table 7); assay type: cell-based
# How it was run: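 This molecular phenotypic susceptibility test gauges whether antimicrobials prevent (sensitive) or allow (resistant) pathogen growth. The cultured specimen is adjusted to 0.5 McFarland and plated against antimicrobial solutions at breakpoint concentrations alongside drug-free controls. Following incubation, cells are lysed without extraction and amplified by semi-quantitative PCR; Ct values are compared against the control wells to assign results.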
smiles,measurement,setting,value
C[C@H]1COc2c(N3CCN(C)CC3)c(F)cc3c(=O)c(C(=O)O)cn1c23 [Levofloxacin],Ct at Sensitive Breakpoint,"[1]; E. coli isolate 1, Ct at control (average) 21.238",20.768
same,Molecular Antimicrobial Susceptibility Result,"[1]; E. coli isolate 1, at sensitive breakpoint",Resistant
same,Ct at Sensitive Breakpoint,"[1]; E. coli isolate 2, Ct at control (average) 21.270",19.100
same,Molecular Antimicrobial Susceptibility Result,"[1]; E. coli isolate 2, at sensitive breakpoint",Resistant
same,Ct at Sensitive Breakpoint,"[1]; E. coli isolate 3, Ct at control (average) 22.0995",29.342
same,Molecular Antimicrobial Susceptibility Result,"[1]; E. coli isolate 3, at sensitive breakpoint",Resistant
same,Ct at Sensitive Breakpoint,"[1]; E. coli isolate 4, Ct at control (average) 17.5733",17.88
same,Molecular Antimicrobial Susceptibility Result,"[1]; E. coli isolate 4, at sensitive breakpoint",Resistant
same,Ct at Sensitive Breakpoint,"[1]; E. coli isolate 5, Ct at control (average) 21.0933",33.85
same,Molecular Antimicrobial Susceptibility Result,"[1]; E. coli isolate 5, at sensitive breakpoint",Sensitive (Antimicrobial wells with pathogen load detected below the control wells (typically >2 cycle thresholds later) may be reported as Sensitive)
same,Molecular Antimicrobial Susceptibility Result,"[2]; E. coli isolate 1189, antibiotic incubation time 4 hours",Sensitive (Antimicrobial wells with pathogen load detected below the control wells (typically >2 cycle thresholds later) may be reported as Sensitive)
same,Ct at Sensitive Breakpoint,"[2]; E. coli isolate 1189, antibiotic incubation time 4 hours, control average Ct […]",27.130
same,Molecular Antimicrobial Susceptibility Result,"[2]; E. coli isolate 1189, antibiotic incubation time 6 hours",Sensitive (Antimicrobial wells with pathogen load detected below the control wells (typically >2 cycle thresholds later) may be reported as Sensitive)
same,Ct at Sensitive Breakpoint,"[2]; E. coli isolate 1189, antibiotic incubation time 6 hours, control average Ct 16.992",26.759
same,Molecular Antimicrobial Susceptibility Result,"[2]; E. coli isolate 1189, antibiotic incubation time 8 hours",Sensitive (Antimicrobial wells with pathogen load detected below the control wells (typically >2 cycle thresholds later) may be reported as Sensitive)
same,Ct at Sensitive Breakpoint,"[2]; E. coli isolate 1189, antibiotic incubation time 8 hours, control average Ct […]",27.068
same,Molecular Antimicrobial Susceptibility Result,"[2]; E. coli isolate 1189, antibiotic incubation time 10 hours",Sensitive (Antimicrobial wells with pathogen load detected below the control wells (typically >2 cycle thresholds later) may be reported as Sensitive)
same,Ct at Sensitive Breakpoint,"[2]; E. coli isolate 1189, antibiotic incubation time 10 hours, control average Ct 15.995",27.170
same,Molecular Antimicrobial Susceptibility Result,"[2]; E. coli isolate 1189, antibiotic incubation time 12 hours",Sensitive (Antimicrobial wells with pathogen load detected below the control wells (typically >2 cycle thresholds later) may be reported as Sensitive)
same,Ct at Sensitive Breakpoint,"[2]; E. coli isolate 1189, antibiotic incubation time 12 hours, control average Ct 15.495",26.835
same,Molecular Antimicrobial Susceptibility Result,"[2]; E. coli isolate 1189, antibiotic incubation time 14 hours",Sensitive (Antimicrobial wells with pathogen load detected below the control wells (typically >2 cycle thresholds later) may be reported as Sensitive)
same,Ct at Sensitive Breakpoint,"[2]; E. coli isolate 1189, antibiotic incubation time 14 hours, control average Ct 15.826",27.545
same,Molecular Antimicrobial Susceptibility Result,"[2]; E. coli isolate 1189, antibiotic incubation time 16 hours",Sensitive (Antimicrobial wells with pathogen load detected below the control wells (typically >2 cycle thresholds later) may be reported as Sensitive)
same,Ct at Sensitive Breakpoint,"[2]; E. coli isolate 1189, antibiotic incubation time 16 hours, control average Ct 14.880",27.791
